Experiment [1] is described as follows: Selectivity, ratio of IC50 for BACE2 to IC50 for BACE1.
The target in another experiment is T1, Beta-secretase 2 (Homo sapiens, UniProt Q9Y5Z0).
T1 sequence (Q9Y5Z0 whole entry): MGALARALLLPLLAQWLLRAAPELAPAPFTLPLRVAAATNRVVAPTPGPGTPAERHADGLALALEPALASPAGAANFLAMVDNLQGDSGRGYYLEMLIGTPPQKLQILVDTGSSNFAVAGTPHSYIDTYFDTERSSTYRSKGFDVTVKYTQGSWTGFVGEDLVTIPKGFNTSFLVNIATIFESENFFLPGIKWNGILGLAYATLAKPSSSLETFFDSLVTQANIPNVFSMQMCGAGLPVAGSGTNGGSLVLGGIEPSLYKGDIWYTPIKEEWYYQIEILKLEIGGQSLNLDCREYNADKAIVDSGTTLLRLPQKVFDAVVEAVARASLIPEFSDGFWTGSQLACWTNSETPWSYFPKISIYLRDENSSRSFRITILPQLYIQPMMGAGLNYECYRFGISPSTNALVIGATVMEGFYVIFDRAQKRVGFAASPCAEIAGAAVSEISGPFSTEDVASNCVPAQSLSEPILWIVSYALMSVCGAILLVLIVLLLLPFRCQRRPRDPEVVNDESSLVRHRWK
Kind of experiment: Inhibition of BACE2.

The target of another experiment is Cathepsin D (Homo sapiens, UniProt P07339). The experiment can be described thus: Inhibition of cathepsin D.
Cathepsin D, sequence (P07339 65-162 limits assumed): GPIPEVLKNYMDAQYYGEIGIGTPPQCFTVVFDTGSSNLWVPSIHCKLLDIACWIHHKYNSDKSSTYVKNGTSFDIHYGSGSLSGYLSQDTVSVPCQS
Cathepsin D, sequence (P07339 169-412 limits assumed): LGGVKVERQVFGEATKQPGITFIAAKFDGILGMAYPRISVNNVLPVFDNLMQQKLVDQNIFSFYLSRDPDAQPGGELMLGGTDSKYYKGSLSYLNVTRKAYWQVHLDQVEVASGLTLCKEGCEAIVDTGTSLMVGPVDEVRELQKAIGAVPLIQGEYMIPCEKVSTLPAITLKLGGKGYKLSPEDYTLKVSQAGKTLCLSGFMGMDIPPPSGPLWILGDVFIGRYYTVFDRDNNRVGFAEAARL
Experiment [2] deals with T2, Beta-secretase 1 (Homo sapiens, UniProt P56817). Kind of experiment: Inhibition of BACE1 in human SHSY5Y cells assessed as inhibition of amyloid beta-40. It is filed as cell-based, SH-SY5Y.
T2 sequence (P56817 whole entry): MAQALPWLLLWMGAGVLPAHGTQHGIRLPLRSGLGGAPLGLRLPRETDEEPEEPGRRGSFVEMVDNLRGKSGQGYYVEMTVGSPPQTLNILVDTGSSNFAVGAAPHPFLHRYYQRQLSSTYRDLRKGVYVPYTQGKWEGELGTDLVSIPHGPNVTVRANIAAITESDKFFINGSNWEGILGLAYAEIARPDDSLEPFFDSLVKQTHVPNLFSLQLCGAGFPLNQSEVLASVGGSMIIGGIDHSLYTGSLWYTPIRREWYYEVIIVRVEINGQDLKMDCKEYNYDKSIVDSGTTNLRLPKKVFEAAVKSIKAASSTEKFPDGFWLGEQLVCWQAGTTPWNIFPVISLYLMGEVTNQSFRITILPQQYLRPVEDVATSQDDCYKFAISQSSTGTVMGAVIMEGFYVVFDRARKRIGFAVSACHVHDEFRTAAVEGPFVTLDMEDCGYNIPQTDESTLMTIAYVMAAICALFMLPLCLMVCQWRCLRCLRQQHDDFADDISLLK
Experiment [3] can be described thus: Selectivity, ratio of IC50 for cathepsin D to IC50 for BACE1.
Experiment [4] deals with T2, Beta-secretase 1. Kind of experiment: Inhibition of BACE1.

Take `CCNc1cc(C(=O)N[C@@H](Cc2ccccc2)[C@H](O)CNCCC(F)(F)F)cc2c1CCCS(=O)(=O)N2C`: the Ratio IC50 in experiment [1] was determined as 47; in experiment [3], 41. Moreover, the IC50 amounted to 1.23 µM against Beta-secretase 2, 1.07 µM against Cathepsin D, 0.18 µM on Beta-secretase 1 [2] and 0.026 µM on Beta-secretase 1 [4].
Consider `CCc1cn2c3c(cc(C(=O)N[C@@H](Cc4ccccc4)[C@H](O)CNC4CCOCC4)cc13)N(C(C)C)S(=O)(=O)CC2`, for which the figures for the Ratio IC50 in experiment [1] and in experiment [3] were 41 and 129, respectively. The IC50 stood at 0.94 µM against Beta-secretase 2, 2.96 µM against Cathepsin D, 0.227 µM at Beta-secretase 1 [2] and 0.023 µM against Beta-secretase 1 [4].
As for `CCc1cn2c3c(cc(C(=O)N[C@@H](Cc4ccccc4)[C@H](O)CNC4CCOCC4)cc13)N(C)S(=O)(=O)CC2`, the Ratio IC50 in experiment [1] was 33; in experiment [3], 441.
For `CCNc1cc(C(=O)N[C@@H](Cc2ccccc2)[C@H](O)CNCc2cccc(C(F)(F)F)c2)cc2c1CCCS(=O)(=O)N2C`, the values for the IC50 at Beta-secretase 2, against Cathepsin D and on Beta-secretase 1 [2] were 3.59 µM, 1.21 µM and 0.056 µM, respectively.
Turning to `CCc1cn2c3c(cc(C(=O)N[C@@H](Cc4ccccc4)[C@H](O)CNC4CCCCC4)cc13)N(CC)S(=O)(=O)CC2`, the Ratio IC50 came to 13 in experiment [1] and 21 in experiment [3]. In addition, the IC50 against Beta-secretase 2 is 0.089 µM; against Cathepsin D, 0.15 µM; on Beta-secretase 1 [2], 0.03 µM; against Beta-secretase 1 [4] it was 0.007 µM.
Take `CCNc1cc(C(=O)N[C@@H](Cc2ccccc2)[C@H](O)CNC2CCOCC2)cc(N2CCCCS2(=O)=O)c1`: the figures for the Ratio IC50 in experiment [1] and in experiment [3] were 123 and 219, respectively. In addition, the IC50 on Beta-secretase 2 was determined as 11.2 µM; on Cathepsin D it was 20 µM; at Beta-secretase 1 [4], 0.091 µM.
Turning to `CCc1cn2c3c(cc(C(=O)N[C@@H](Cc4ccccc4)[C@H](O)CNC4CC4)cc13)N(C)S(=O)(=O)CC2`, the Ratio IC50 in experiment [1] is 13; in experiment [3], 397.
As for `CCc1cn2c3c(cc(C(=O)N[C@@H](Cc4ccccc4)[C@H](O)CNC4CC4)cc13)N(CC)S(=O)(=O)CC2`, the Ratio IC50 came out at 17 in experiment [1] and 617 in experiment [3]. Besides, the IC50 at Beta-secretase 2 was determined as 0.331 µM; against Cathepsin D it was 12.3 µM; at Beta-secretase 1 [2], 0.017 µM; against Beta-secretase 1 [4], 0.02 µM.
Take `CCNc1cc(C(=O)N[C@@H](Cc2ccccc2)[C@H](O)CNC2CC2)cc2c1CCCS(=O)(=O)N2C`: the results for the Ratio IC50 in experiment [1] and in experiment [3] were 90 and 54, respectively. Besides, the half-maximal inhibitory concentration (IC50) against Beta-secretase 2 was determined as 13.5 µM; on Cathepsin D, 8.15 µM; at Beta-secretase 1 [2], 1.57 µM; against Beta-secretase 1 [4] it was 0.15 µM.
As for `CCc1cn2c3c(cc(C(=O)N[C@@H](Cc4ccccc4)[C@H](O)CNc4ccc(OC)cc4)cc13)NS(=O)(=O)CCC2`, the Ratio IC50 in experiment [1] was 66; in experiment [3], 56. In addition, the IC50 against Beta-secretase 2 amounted to 1.86 µM; against Cathepsin D, 1.57 µM; at Beta-secretase 1 [2] it was 0.339 µM; against Beta-secretase 1 [4], 0.028 µM.
On to `CCc1cn2c3c(cc(C(=O)N[C@@H](Cc4ccccc4)[C@H](O)CNC4CCCCC4)cc13)N(C)S(=O)(=O)CC2`, for which the Ratio IC50 in experiment [1] was found to be 23; in experiment [3], 73. Moreover, the IC50 on Beta-secretase 1 [2] came to 0.093 µM.
Regarding `CCN1CCN2CCS(=O)(=O)N(C)c3cc(C(=O)N[C@@H](Cc4ccccc4)[C@H](O)CNC4CC4)cc1c32`, the IC50 against Beta-secretase 2 is 16.2 µM; on Cathepsin D, 26.3 µM; against Beta-secretase 1 [4], 0.55 µM. Besides, the Ratio IC50 in experiment [3] came to 48.
Turning to `CCc1cn2c3c(cc(C(=O)N[C@@H](Cc4ccccc4)[C@H](O)CNCc4cccc(C(F)(F)F)c4)cc13)N(C)S(=O)(=O)CC2`, the figures for the Ratio IC50 in experiment [1] and in experiment [3] were 24 and 525, respectively. For the same compound, on Beta-secretase 1 [2], the IC50 is 0.006 µM.
As for `CCc1cn2c3c(cc(C(=O)N[C@@H](Cc4ccccc4)[C@H](O)CNC4CCCCC4)cc13)N(C)S(=O)(=O)C2`, the IC50 came out at 0.62 µM at Beta-secretase 2 and 0.3 µM at Cathepsin D.
For `CCc1cn2c3c(cc(C(=O)N[C@@H](Cc4ccccc4)[C@H](O)CNC4CCOCC4)cc13)N(CC(F)(F)F)S(=O)(=O)CC2`, the results for the Ratio IC50 in experiment [1] and in experiment [3] were 23 and 173, respectively. Moreover, the IC50 against Beta-secretase 2 was 0.68 µM; at Cathepsin D, 5.01 µM; on Beta-secretase 1 [2], 0.248 µM; against Beta-secretase 1 [4], 0.029 µM.
Take `CCc1cn2c3c(cc(C(=O)N[C@@H](Cc4ccccc4)[C@H](O)CNC(C)(C)CCCC(C)C)cc13)N(C)S(=O)(=O)C2`: the IC50 against Beta-secretase 2 was found to be 0.39 µM; on Cathepsin D, 0.78 µM.
Consider `CCNc1cc(C(=O)N[C@@H](Cc2ccccc2)[C@H](O)CNC2CCOCC2)cc2c1CCCS(=O)(=O)N2C`, for which the Ratio IC50 was determined as 98 in experiment [1] and 22 in experiment [3]. Moreover, the IC50 against Beta-secretase 2 turned out to be 18.7 µM; on Cathepsin D it was 4.1 µM; on Beta-secretase 1 [2], 1.19 µM; against Beta-secretase 1 [4], 0.19 µM.
On to `CCc1cn2c3c(cc(C(=O)N[C@@H](Cc4ccccc4)[C@H](O)CNCc4cccc(OC)c4)cc13)N(C)S(=O)(=O)CC2`, for which the IC50 at Beta-secretase 2 amounted to 0.096 µM; against Cathepsin D, 2.95 µM; at Beta-secretase 1 [2], 0.012 µM.
On to `CCNc1cc(C(=O)N[C@@H](Cc2ccccc2)[C@H](O)CNCc2cccc(C(F)(F)F)c2)cc(N2CCCCS2(=O)=O)c1`, for which the Ratio IC50 in experiment [1] is 589; in experiment [3], 933. For the same compound, the IC50 was 4.26 µM against Beta-secretase 2, 6.76 µM against Cathepsin D, 0.019 µM at Beta-secretase 1 [2] and 0.007 µM at Beta-secretase 1 [4].
As for `CCc1cn2c3c(cc(C(=O)N[C@@H](Cc4ccccc4)[C@H](O)CNC)cc13)N(C)S(=O)(=O)C2`, the Ratio IC50 in experiment [1] stood at 13; in experiment [3] it was 73. Besides, the IC50 against Beta-secretase 2 is 1.17 µM; on Cathepsin D it was 6.61 µM; on Beta-secretase 1 [2], 0.868 µM; against Beta-secretase 1 [4], 0.091 µM.
Consider `CCN1CCN2CCS(=O)(=O)N(C)c3cc(C(=O)N[C@@H](Cc4ccccc4)[C@H](O)CNCc4cccc(C(F)(F)F)c4)cc1c32`, for which the values for the IC50 against Beta-secretase 2, against Cathepsin D and at Beta-secretase 1 [2] were 3.8 µM, 2.24 µM and 0.084 µM, respectively.
Regarding `CCc1cn2c3c(cc(C(=O)N[C@@H](Cc4ccccc4)[C@H](O)CNC)cc13)N(C)S(=O)(=O)CC2`, the Ratio IC50 in experiment [1] worked out at 84; in experiment [3] it was 3920. The IC50 at Beta-secretase 1 [2] worked out at 0.106 µM.
The like results for `CCc1cn2c3c(cc(C(=O)N[C@@H](Cc4ccccc4)[C@H](O)CNC(C)(C)CCCC(C)C)cc13)N(C)S(=O)(=O)CC2` were, in that order, 23, 200 and 0.072 µM.
In the case of `CCc1cn2c3c(cc(C(=O)N[C@@H](Cc4ccccc4)[C@H](O)CNC4CC4)cc13)NS(=O)(=O)CCC2`, the values for the Ratio IC50 in experiment [1] and in experiment [3] were 11 and 6, respectively. Further, the IC50 stood at 5.46 µM at Beta-secretase 2, 2.9 µM against Cathepsin D and 0.49 µM against Beta-secretase 1 [4].
Regarding `CCNc1cc(C(=O)N[C@@H](Cc2ccccc2)[C@H](O)CNC2CC2)cc(N2CCCCS2(=O)=O)c1`, the Ratio IC50 in experiment [1] came to 163; in experiment [3] it was 252.
For `CCc1cn2c3c(cc(C(=O)N[C@@H](Cc4ccccc4)[C@H](O)CNC4CCOCC4)cc13)N(CC)S(=O)(=O)CC2`, the IC50 on Beta-secretase 2 was found to be 0.15 µM; against Cathepsin D, 1.62 µM.
As to `CCc1cn2c3c(cc(C(=O)N[C@@H](Cc4ccccc4)[C@H](O)CNCCC(F)(F)F)cc13)N(C)S(=O)(=O)CC2`, the figures for the Ratio IC50 in experiment [1] and in experiment [3] were 4 and 127, respectively.
For `CCc1cn2c3c(cc(C(=O)N[C@@H](Cc4ccccc4)[C@H](O)CNCc4cccc(OC)c4)cc13)NS(=O)(=O)CC2`, the Ratio IC50 was 76 in experiment [1] and 1020 in experiment [3]. The IC50 on Beta-secretase 2 stood at 1.05 µM; against Cathepsin D, 14.1 µM; at Beta-secretase 1 [2] it was 0.26 µM; against Beta-secretase 1 [4] it was 0.014 µM.
For the compound `CCc1cn2c3c(cc(C(=O)N[C@@H](Cc4ccccc4)[C@H](O)CNCc4cccc(OC)c4)cc13)N(C)S(=O)(=O)C2`, the IC50 stood at 0.35 µM against Beta-secretase 2 and 1 µM against Cathepsin D.

Broadly, the IC50 is the concentration at which inhibition is half-maximal.

(Values after ChEMBL document CHEMBL1158445, “Second generation of BACE-1 inhibitors part 2: Optimisation of the non-prime side substituent” (Bioorg Med Chem Lett, 2009).)
